Where “and” joins values, the source holds several entries; their conditions need not be identical. Identical values can stand only once. Toxic doses and inconclusive results are not listed. Cut-off read from the data, not from the text of the source: active = T/C of 150% or more; inactive = T/C below 125%. Peptide text beside a SMILES is read from it. * marks the point of attachment. Cbz = O=C(OCc1ccccc1)*
Test system: L1210 leukemia ip in BDF1 mice, survival T/C
Assay: NCI In Vivo Anticancer Drug Screen. Data for tumor model L1210 Leukemia (intraperitoneal) in B6D2F1 (BDF1) mice
Details: endpoint: mean survival time, higher = longer survival
How it was run: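 Ratio derived from survival: compound-dosed mice over vehicle-dosed mice, all bearing a transplantable tumor.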

[1] = dose: 100.0 mg/kg/injection, schedule: Q01DX009 (ip), vehicle: saline with Tween-80
[2] = dose: 100.0 mg/kg/injection, schedule: Q04DX003 (ip), vehicle: saline with Tween-80
[3] = dose: 200.0 mg/kg/injection, schedule: Q01DX009 (ip), vehicle: saline with Tween-80
[4] = dose: 200.0 mg/kg/injection, schedule: Q04DX003 (ip), vehicle: saline with Tween-80
[5] = dose: 400.0 mg/kg/injection, schedule: Q01DX009 (ip), vehicle: saline with Tween-80
[6] = dose: 400.0 mg/kg/injection, schedule: Q04DX003 (ip), vehicle: saline with Tween-80
[7] = dose: 5.0 mg/kg/injection, schedule: Q01DX001 (ip), vehicle: saline
[8] = dose: 100.0 mg/kg/injection, schedule: Q04DX003 (ip), vehicle: Klucel (hydroxypropylcellulose) (HPC)
[9] = dose: 200.0 mg/kg/injection, schedule: Q04DX003 (ip), vehicle: Klucel (hydroxypropylcellulose) (HPC)
[10] = dose: 100.0 mg/kg/injection, schedule: Q01DX001 (ip), vehicle: saline
[11] = dose: 200.0 mg/kg/injection, schedule: Q01DX001 (ip), vehicle: saline
[12] = dose: 400.0 mg/kg/injection, schedule: Q04DX003 (ip), vehicle: Klucel (hydroxypropylcellulose) (HPC)
[13] = dose: 100.0 mg/kg/injection, schedule: Q04DX003 (ip), vehicle: saline
[14] = dose: 200.0 mg/kg/injection, schedule: Q04DX003 (ip), vehicle: saline
[15] = dose: 400.0 mg/kg/injection, schedule: Q04DX003 (ip), vehicle: saline
[16] = dose: 400.0 mg/kg/injection, schedule: Q01DX001 (ip), vehicle: saline

Measured: T/C

Cc1cc(CSC2=NCCN2)c(C)cc1CSC1=NCCN1
inactive: dose: 25.0 mg/kg/injection, schedule: Q04DX002 (ip), vehicle: saline with Tween-80 111 % of control | dose: 50.0 mg/kg/injection, schedule: Q04DX002 (ip), vehicle: saline with Tween-80 100 % of control | dose: 100.0 mg/kg/injection, schedule: Q04DX002 (ip), vehicle: saline with Tween-80 101 % of control and 109 % of control

C1=C(c2ccccc2)[P+](c2ccccc2)(c2ccccc2)C=C(c2ccccc2)[P+]1(c1ccccc1)c1ccccc1
inactive: dose: 12.5 mg/kg/injection, schedule: Q01DX009 (ip), vehicle: saline 108 % of control | dose: 12.5 mg/kg/injection, schedule: Q04DX003 (ip), vehicle: saline 106 % of control | dose: 25.0 mg/kg/injection, schedule: Q01DX009 (ip), vehicle: saline 109 % of control | dose: 25.0 mg/kg/injection, schedule: Q04DX003 (ip), vehicle: saline 109 % of control | dose: 50.0 mg/kg/injection, schedule: Q04DX003 (ip), vehicle: saline 102 % of control

[O-][n+]1c(CN2CCCCC2)nc2cccc3c2c1-c1ccccc1-3
inactive: [1] 97 % of control | [2] 101 % of control | [3] 100 % of control | [4] 101 % of control | [5] 107 % of control | [6] 100 % of control

COc1ccc(OC)c(NC(=O)OCCOc2ccccc2)c1
inactive: [1] 104 % of control | [3] 107 % of control | [5] 100 % of control

O=C1NC(=O)C(F)C(O)N1 (centres undefined)
inactive: [7] 102 % of control | dose: 10.0 mg/kg/injection, schedule: Q01DX001 (ip), vehicle: saline 101 % of control | dose: 20.0 mg/kg/injection, schedule: Q01DX001 (ip), vehicle: saline 96 % of control | dose: 40.0 mg/kg/injection, schedule: Q01DX001 (ip), vehicle: saline 101 % of control | dose: 80.0 mg/kg/injection, schedule: Q01DX001 (ip), vehicle: saline 108 % of control

CCCCCCCCCCCCCCCC[N+]1(CCCC)CCOCC1
inactive: [8] 86 % of control | [9] 101 % of control

CC(NC(=O)C(CCC(=O)O)NC(=O)C(N)C(C)C)C(=O)NCC(=O)NC(C(=O)NC(CCC(=O)O)C(=O)NC(C)C(=O)NCC(=O)NCC(=O)O)C(C)C (centres undefined) (H-VEAGVEAGG-OH; configuration not given here)
inactive: dose: 50.0 mg/kg/injection, schedule: Q01DX001 (ip), vehicle: saline 93 % of control | [10] 95 % of control | [11] 91 % of control

O=C(Cc1ccccc1)c1ccc(O)cc1
inactive: [8] 102 % of control | [9] 102 % of control | [12] 88 % of control

CC(=O)NN(CCN(NC(C)=O)C(C)=O)C(C)=O
inactive: [13] 104 % of control | [14] 95 % of control | [15] 101 % of control

CC[CH2][Pb]([CH2]CC)([CH2]CC)[O]C(=O)C(F)(F)F
inactive: dose: 12.5 mg/kg/injection, schedule: Q04DX002 (ip), vehicle: Klucel (hydroxypropylcellulose) (HPC) 107 % of control | dose: 25.0 mg/kg/injection, schedule: Q04DX002 (ip), vehicle: Klucel (hydroxypropylcellulose) (HPC) 95 % of control

O=C1c2cccc(Sc3ccccc3)c2C(=O)c2c(Sc3ccccc3)cccc21
inactive: [2] 91 % of control | [4] 88 % of control | [6] 91 % of control

CSCCC(NC(=O)C(CO)NC(=O)OCc1ccccc1)C(=O)O (stereo not drawn) (Cbz-Ser-Met-OH; configuration not given here)
inactive: [8] 96 % of control | [9] 97 % of control | [12] 96 % of control

Nc1cc(Cl)c(Cl)cc1Cl
inactive: [2] 97 % of control | [4] 101 % of control | [6] 100 % of control

CC(C)C(=O)[O][Pb]([CH3])([CH3])[CH3]
inactive: dose: 12.5 mg/kg/injection, schedule: Q04DX002 (ip), vehicle: saline 90 % of control

Cc1cc(C)c(CCl)c(C)c1CCl
inactive: [10] 119 % of control

Cc1ccc(S(=O)(=O)N/N=C/C(O)C(O)C(O)C(O)CO)cc1 (centres undefined)
inactive: [1] 102 % of control | [3] 102 % of control | [5] 100 % of control

COc1ccc(C(=O)C(Br)(Cc2ccccc2)OC)cc1 (centres undefined)
inactive: dose: 66.0 mg/kg/injection, schedule: Q04DX003 (ip), vehicle: saline 93 % of control | [13] 94 % of control | dose: 150.0 mg/kg/injection, schedule: Q04DX003 (ip), vehicle: saline 94 % of control

CC(NC(=O)Oc1ccccc1)Oc1ccccc1 (centres undefined)
inactive: [2] 96 % of control | [4] 101 % of control | [6] 96 % of control

N#CC(O)c1ccccc1 (centres undefined)
inactive: dose: 2.5 mg/kg/injection, schedule: Q01DX009 (ip), vehicle: acetone 101 % of control | dose: 5.0 mg/kg/injection, schedule: Q01DX001 (ip), vehicle: carboxymethylcellulose (CMC) 95 % of control | dose: 5.0 mg/kg/injection, schedule: Q01DX009 (ip), vehicle: acetone 102 % of control | dose: 10.0 mg/kg/injection, schedule: Q01DX001 (ip), vehicle: carboxymethylcellulose (CMC) 91 % of control | dose: 10.0 mg/kg/injection, schedule: Q01DX009 (ip), vehicle: acetone 104 % of control

Cc1ccc(CCS(=O)(=O)N=[N+]=[N-])cc1
inactive: [10] 101 % of control | [11] 97 % of control | [16] 101 % of control

O=CO.[Cd]
inactive: [7] 104 % of control

O=C(Nc1ccccc1F)OCC1CC2C=CC1C2 (centres undefined)
inactive: dose: 100.0 mg/kg/injection, schedule: Q01DX009 (ip), vehicle: Klucel (hydroxypropylcellulose) (HPC) 101 % of control | dose: 200.0 mg/kg/injection, schedule: Q01DX009 (ip), vehicle: Klucel (hydroxypropylcellulose) (HPC) 104 % of control | dose: 400.0 mg/kg/injection, schedule: Q01DX009 (ip), vehicle: Klucel (hydroxypropylcellulose) (HPC) 93 % of control

NCCCN1CCN(CCCN)CC1
inactive: [10] 98 % of control | dose: 100.0 mg/kg/injection, schedule: Q01DX009 (ip), vehicle: saline 94 % of control and 103 % of control | [13] 97 % of control | [11] 90 % of control | dose: 200.0 mg/kg/injection, schedule: Q01DX009 (ip), vehicle: saline 94 % of control and 97 % of control | [14] 96 % of control | [16] 95 % of control | dose: 400.0 mg/kg/injection, schedule: Q01DX009 (ip), vehicle: saline 100 % of control and 88 % of control | [15] 92 % of control

O=C1CCN(CCN2CCC(=O)NC2=S)C(=S)N1
inactive: dose: 100.0 mg/kg/injection, schedule: Q04DX002 (ip), vehicle: gum acacia 94 % of control | dose: 200.0 mg/kg/injection, schedule: Q04DX002 (ip), vehicle: gum acacia 91 % of control | dose: 400.0 mg/kg/injection, schedule: Q04DX002 (ip), vehicle: gum acacia 97 % of control

CC(C)CC1(C)NC(=O)NC1=O (centres undefined)
inactive: [1] 97 % of control | [3] 102 % of control | [5] 97 % of control

COc1ccc(-c2c(-c3ccccc3)oc3ccc4ccccc4c23)cc1
inactive: [1] 87 % of control | [3] 93 % of control | [5] 92 % of control

COc1c2c(c3ccccc3c1OC(C)=O)OC(C)(C)CC2
inactive: dose: 100.0 mg/kg/injection, schedule: Q01DX001 (ip), vehicle: saline with Tween-80 88 % of control | dose: 200.0 mg/kg/injection, schedule: Q01DX001 (ip), vehicle: saline with Tween-80 92 % of control | dose: 400.0 mg/kg/injection, schedule: Q01DX001 (ip), vehicle: saline with Tween-80 90 % of control

COC(=O)CC(CC(=O)OC)c1ccc(OC)c([N+](=O)[O-])c1
inactive: dose: 25.6 mg/kg/injection, schedule: Q04DX002 (ip), vehicle: saline with Tween-80 101 % of control | dose: 64.0 mg/kg/injection, schedule: Q04DX002 (ip), vehicle: saline with Tween-80 101 % of control | dose: 160.0 mg/kg/injection, schedule: Q04DX002 (ip), vehicle: saline with Tween-80 97 % of control | dose: 400.0 mg/kg/injection, schedule: Q04DX002 (ip), vehicle: saline with Tween-80 93 % of control

CCCCNC(=O)Nc1cc(C)c(C)cc1C
inactive: dose: 25.0 mg/kg/injection, schedule: Q01DX009 (ip), vehicle: gum acacia 106 % of control | dose: 50.0 mg/kg/injection, schedule: Q01DX009 (ip), vehicle: gum acacia 96 % of control | dose: 100.0 mg/kg/injection, schedule: Q01DX009 (ip), vehicle: gum acacia 88 % of control | dose: 100.0 mg/kg/injection, schedule: Q04DX003 (ip), vehicle: gum acacia 91 % of control | dose: 200.0 mg/kg/injection, schedule: Q01DX009 (ip), vehicle: gum acacia 92 % of control | dose: 200.0 mg/kg/injection, schedule: Q04DX003 (ip), vehicle: gum acacia 96 % of control | dose: 400.0 mg/kg/injection, schedule: Q04DX003 (ip), vehicle: gum acacia 87 % of control
